# Laboratory results: US4882327A, “Certain heterocyclic N-substituted carboxamides” (Beecham Group p.l.c., priority 1987, dated 1989)
# Counter-ions that a name gives are not always drawn.
# Test system: von Bezold-Jarisch reflex evoked by 5-HT
# Experiment: Antagonism of the von Bezold-Jarisch reflex evoked by 5-HT in the anesthetized rat
# Type: in vivo
# Conditions: iv, urethane-anesthetized male rats, submaximal 5-HT (usually 6 μg/kg i.v.), heart rate changes, read-out: ED50 (dose required to reduce the 5-HT-evoked response to 50% of the control response)
# Procedure: Antagonism of the von Bezold-Jarisch reflex
# The compounds were evaluated for antagonism of the von Bezold-Jarisch reflex evoked by 5-HT in the anesthetized rat according to the following method
# Male rats 250-350 g, were anesthetized with urethane (1.25 g/kg intraperitoneally) and blood pressure and heart rate recorded as described by Fozard J. R. et al., J. Cardiovasc Pharmacol 2, 229-245 (1980). A submaximal dose of 5-HT (usually 6 μg/kg) was given repeatedly by the intravenous route and changes in heart rate quantified Compounds were given intravenously and the concentration required to reduce the 5-HT-evoked response to 50% of the control response (ED50) was then determined.
smiles,measurement,value
"CCc1cc(C(=O)NC2CC3CCC(C2)N3C)c2ccccn12 (stereo not drawn) [Compound 2, (endo)-N-(8-Methyl-8-azabicyclo[3.2.1]oct-3-yl)-3-ethylindolizin-1-carboxamide]",ED50,0.24 µg/kg
CCc1nc(C(=O)NC2CC3CCCC(C2)N3C)c2ccccn12 (centres unmarked) [Compound 8],ED50,0.5 µg/kg
"CCc1nc(C(=O)NC2CC3CCC(C2)N3C)c2ccccn12 (stereo not drawn) [Compound 9, (endo)-N-(8-Methyl-8-azabicyclo[3,2,1]oct-3-yl)-3ethylimidazo[1,5-a]plyridin-1-carboxamide]",ED50,1 µg/kg
"CN1C2CCC1CC(NC(=O)C1=CC(C)(C)c3ccccc31)C2 (stereo not drawn) [Compound 13, (endo)-N-(8-Methyl-8-azabicyclo[3.2.11]octan-3-yl)-3,3-dimethylindene-1-carboxamide monohydrochloride]",ED50,1.1 µg/kg
"CN1C2CCC1CC(NC(=O)c1ccc3cccccc1-3)C2 (stereo not drawn) [Compound 17, (endo)-N-(8-Methyl-8-azabicyclo[3.2.1]octan-3-yl)azulene-1-carboxamide]",ED50,13 µg/kg
